Source: publication PMC3516535, “Rhesus Macaque Theta Defensins Suppress Inflammatory Cytokines and Enhance Survival in Mouse Models of Bacteremic Sepsis” (PLoS ONE, 2012)
Where two headings read alike, the source gives them in different places. Bridge positions count the residues as written; N and C are the ends. Peptide text beside a SMILES is read from it.

Key:
[1] = tested on: human peripheral blood leukocytes (PBL); test: Cytokine/chemokine release by TLR agonist-stimulated peripheral blood leukocytes (Milliplex); assay type: cell-based
Experimental: EDTA-anticoagulated blood was obtained from healthy adult volunteers as approved by the Institutional Review Board at USC (protocol # HS-09-00280). Peripheral blood leukocytes (PBL) were harvested from 10–15 ml whole blood after centrifugation at 200× g. Cells were washed twice with 3–5 ml of RPMI, counted with a hemocytometer, and suspended to a cell density of 5×10^5 cells/ml in RPMI +5% human EDTA-plasma. PBLs were stimulated for 4 h with either 0.9 µg/ml ssRNA40, 30 ng/ml S. typhimurium flagellin, 3.3×10^7 CFU/ml heat-killed L. monocytogenes (HKLM), 3 ng/ml E. coli K12 LPS, or 100 CFU/ml of the clinical E. coli isolate. Cytokines/chemokines were quantified using a Milliplex MAP kit on a BioRad Bioplex HTF Luminex reader at the Beckman Center for Immune Monitoring at USC-Norris Cancer Center.

[2] = tested on: human EDTA-anti-coagulated blood diluted 1∶10; test: TNF release assay in stimulated diluted whole blood (ELISA); assay type: cell-based
THP-1 monocytic cells = test: TNF release assay in LPS-stimulated THP-1 monocytes (ELISA); assay type: cell-based, human; details: THP-1 in RPMI +5% human EDTA-plasma, 1 ng/ml K12 LPS, 4 h, N = 2
Experimental: THP-1 monocytic cells (ATCC, Manassas, VA) were grown and maintained in RPMI-1640 medium containing 10% fetal bovine serum and penicillin/streptomycin. Cells were harvested by centrifugation, washed with RPMI-1640 medium and suspended at 5×10^5 cells/ml in fresh medium containing 5% human EDTA plasma.
Peptides (RTDs 1–5, human neutrophil α-defensins) were aliquoted into wells of pyrogen-free 12- or 24-well plates wherein final peptide concentrations were 0–10 µg/ml. Wells were inoculated with 1×10^5 CFU/ml S. aureus or 100 CFU/ml E. coli, or 1–3 ng/ml of E. coli K12 LPS. Samples (5–10 µl) containing peptide or bacteria/LPS were placed on opposite sides of the plate well. Mixing commenced with the addition of 0.5 to 2.0 ml of 1∶10 diluted blood, PBLs (5×10^5/ml), or THP-1 cells (2–5×10^5 cells/ml). Plates were incubated at 37°C in 5% CO2 for 4 h with gentle mixing. […] Incubation mixtures were centrifuged at 200× g for 10 min at 22°C and supernatants were clarified by centrifugation at 23,000× g for 15 min at 4°C. Supernatant TNF was quantified by sandwich ELISA (OptEIA II; BD Biosciences; Hu TNF-α, Invitrogen) per suppliers’ directions, using a SpectraMax Plate Reader.

[3] = LPS neutralization assay (Limulus amoebocyte lysate); assay type: biochemical, Escherichia coli; details: LAL assay, 0–10 µg/ml, N = 4
Experimental: To each sample 25 µl of Limulus amoebocyte lysate (LAL; Lonza) was added and incubated for 10 min at 37°C after which 100 µl of LAL substrate was added and incubated for 6 min at 37°C. Reactions were quenched with 50 µl of 25% HOAc and read spectrophotometrically at 405 nm.

E. coli = test: Killing of E. coli during pre-incubation with peptide; assay type: cell-based, Escherichia coli; details: 100 CFU/ml E. coli, 10 µg/ml peptide in RPMI
[4] = tested on: leukocytes / target cells; test: Cytotoxicity by trypan blue staining in the in vitro incubations; assay type: cell-based, human; details: TNF release incubations in blood, 4 h
BALB/c mice = test: Mouse exposure study, repeated subcutaneous injection; assay type: in vivo
Experimental: Twenty four h after the fourth injection, mice were euthanized with CO2, blood was collected by cardiac puncture, and tissues were harvested and fixed in 10% buffered formalin. Histopathologic examination was performed on sections of heart, lung, liver, spleen, kidney, and injection site skin and subcutaneous tissue. A basic metabolic panel (UC Davis-William R. Pritchard Veterinary Medical Teaching Hospital) was performed on serum samples obtained by cardiac puncture at the time of euthanasia.

[5] = tested on: BALB/c mice with CLP polymicrobial sepsis; test: Cecal-ligation/puncture (CLP) induced sepsis; assay type: in vivo, mouse
Experimental: Polymicrobial peritonitis was induced in 6–8 week old BALB/c mice by CLP as described, [21]. Briefly, laparotomy was performed on anesthetized animals and the cecum was ligated below the ileocecal valve. Both walls of the cecum were punctured twice with an 18-gauge needle, and the surgical wound closed with 3–0 nylon suture. All animals fully recovered within 60 min. […] Animal health was evaluated daily for 28 days. As above, mice were euthanized when they became moribund.

[6] = human whole blood, data not shown
[7] = rat whole blood, data not shown
[8] = mouse whole blood, data not shown
[9] = tested on: BALB/c mice challenged with E. coli K12; details: 8×10^8 CFU E. coli K12 i.p., single s.c. dose 5 mg/kg at challenge, n = 13
DA rats = tested on: DA rats; set-up: method as in Schaal et. al, manuscript in preparation; details: repetitive (8–15 injections) s.c. challenge, after 8 weeks; ref Schaal et. al, manuscript in preparation; cited from earlier work
[10] = tested on: SARS-coronavirus (SARS-CoV); details: cited from earlier work
host cells = details: cited from earlier work
Source text: The only detected tissue effect as ...

in vitro = details: human, EDTA plasma
[11] = ref D. Tran & M.E. Selsted, unpublished data, cited from earlier work
[12] = PBL stimulated 4 h with 0.9 µg/ml ssRNA40 (TLR8 agonist), simultaneous addition of 10 µg/ml peptide

## CC[C@H](C)[C@@H]1NC(=O)[C@@H]2CSSC[C@H](NC(=O)[C@H](CCCNC(=N)N)NC(=O)[C@@H]3CSSC[C@H](NC1=O)C(=O)N[C@@H]([C@@H](C)O)C(=O)N[C@@H](CCCNC(=N)N)C(=O)NCC(=O)N[C@@H](Cc1ccccc1)C(=O)N3)C(=O)N[C@@H](CC(C)C)C(=O)N[C@H]1CSSC[C@H](NC(=O)[C@H](C(C)C)NC(=O)CNC(=O)[C@H](CCCNC(=N)N)NC(=O)[C@H](CCCNC(=N)N)NC1=O)C(=O)N[C@@H](CCCNC(=N)N)C(=O)N2 [RTD-1] (cyclo(GFCRCLCRRGVCRCICTR); disulfide 3-16, 5-14, 7-12)
[1]; HKLM-stimulated PBL, 10 µg/ml peptide, 4 h
  effect on induced levels of chemokines CXCL8 (IL-8), CCL2 (MCP-1), CCL3 (MIP-1α), CCL4 (MIP-1β): no suppression
[1]; [12]
  suppression of supernatant IL-1β level: 95%
  suppression of supernatant IL-8 level: 68%
[1]; RTD-1 treatment of PBLs
  effect on VEGF-A: reproducible elevation
[1]; unstimulated leukocytes, 10 µg/ml peptide alone, exception VEGF and to a lesser degree CCL2 (MCP-1)
  effect of peptide alone on cytokine/chemokine release: little effect
[2]; E. coli pre-treated with 10 µg/ml peptide for 0–120 min before addition of blood, 4 h, all time-points
  blockade of TNF release: complete blockade
[2]; E. coli-stimulated blood, 4 h, N = 2
  hierarchy of anti-TNF potencies: RTD-5>2>1>4>3
[2]; blood incubated 4 h with peptide alone, no stimulus
  effect of peptide alone on TNF release: no effect
THP-1 monocytic cells
  hierarchy of anti-TNF potencies: RTD-5>2>1>4>3
[3]; 10 min 37°C
  effectiveness in neutralizing E. coli LPS relative to polymyxin B (fold less effective): 50–100 fold
[3]
  neutralization of E. coli LPS: ineffective in neutralizing
E. coli
  time to killing of E. coli (absence of viable bacteria): ≤ 30 min
[4]
  cytotoxicity (trypan blue staining of leukocytes): no cytotoxicity was detected
BALB/c mice; 40 mg/kg s.c. daily, at day 4
  incidence of focal, non-erythematous swelling at injection site: 2/4
BALB/c mice; 160 mg/kg s.c. daily, by day 3
  incidence of focal, non-erythematous swelling at injection site: 4/4
BALB/c mice; after 4 day dosing regimen, all peptide levels tested
  histopathology of lungs, kidneys, heart, liver, spleen: no abnormalities
BALB/c mice; daily s.c. injections for 4 days, 2.5–160 mg/kg, basic metabolic panel
  serum chemistries: indistinguishable from saline-treated controls
BALB/c mice; daily s.c. injections for 4 days, up to 160 mg/kg (highest dose tested), groups of four
  acute toxicity: no acute toxicity was observed
BALB/c mice; multiple injections of 2.5 or 10 mg/kg
  lobular panniculitis with fat necrosis at injection site: absent
[5]; single i.v. dose administered 4 h after CLP surgery, 28 days
  long term survival: 10 of 11
[5]; single i.v. dose delayed until 24 h post CLP, through end of trial
  recovery / survival: 4 of 5
[6]
  time highly stable in whole blood: at least 24 h
[7]
  time highly stable in whole blood: at least 24 h
[8]
  time highly stable in whole blood: at least 24 h
[9]
  survival: significantly improved survival
DA rats
  anti-RTD-1 antibody: no anti-RTD-1 antibody
[10]
  virus neutralization in vitro: did not neutralize the virus
Host cells
  toxicity to host cells in vitro: non-toxic
In vitro
  remaining at 72 h, 50 µg/ml: 93%
[11]; 100°C, 30 min
  stability to heating: completely stable
[11]; pH 2.0
  stability to extended storage at pH 2.0: completely stable
